One data set is described as follows: Solubility in water. The note with it: free base.
Data set [1] deals with T1, MAO-B (Rattus norvegicus, UniProt P19643).
T1 sequence (P19643 1-520): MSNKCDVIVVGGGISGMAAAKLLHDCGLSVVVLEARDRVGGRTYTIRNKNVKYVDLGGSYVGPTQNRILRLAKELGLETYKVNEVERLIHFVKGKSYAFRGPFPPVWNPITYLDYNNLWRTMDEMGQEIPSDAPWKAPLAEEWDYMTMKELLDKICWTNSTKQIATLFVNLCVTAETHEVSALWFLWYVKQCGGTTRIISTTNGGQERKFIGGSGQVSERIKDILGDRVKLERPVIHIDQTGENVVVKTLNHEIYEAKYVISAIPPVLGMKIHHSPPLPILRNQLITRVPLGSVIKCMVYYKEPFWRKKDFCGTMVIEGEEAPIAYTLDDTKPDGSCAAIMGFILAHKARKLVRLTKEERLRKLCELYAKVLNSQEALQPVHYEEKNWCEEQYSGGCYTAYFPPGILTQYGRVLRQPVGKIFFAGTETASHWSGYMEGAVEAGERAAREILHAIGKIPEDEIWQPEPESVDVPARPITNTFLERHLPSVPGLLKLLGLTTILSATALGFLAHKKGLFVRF
Kind of data set: biochemical. In kind it is biochemical. Conditions: for IC50: read-out: PE IC50. Here is the method: (§1) The aliphatic propargylamine inhibitors (from 1×10^-10 M to 1×10^-4 M) were preincubated with the MAO for 20 min. at ambient room temperature and then the residual enzyme activities were determined by addition of the substrates, followed by further incubation at 37° C. for 30 min. The enzymatic reactions were terminated by the addition of citric acid and the aldehyde products were extracted with toluene: ethyl acetate (1:1, v/v) and the radio-activities assessed in a scintillation counter.

In data set [2] the target is T2, MAO-A (Rattus norvegicus, UniProt P21396).
T2 sequence (P21396 1-526): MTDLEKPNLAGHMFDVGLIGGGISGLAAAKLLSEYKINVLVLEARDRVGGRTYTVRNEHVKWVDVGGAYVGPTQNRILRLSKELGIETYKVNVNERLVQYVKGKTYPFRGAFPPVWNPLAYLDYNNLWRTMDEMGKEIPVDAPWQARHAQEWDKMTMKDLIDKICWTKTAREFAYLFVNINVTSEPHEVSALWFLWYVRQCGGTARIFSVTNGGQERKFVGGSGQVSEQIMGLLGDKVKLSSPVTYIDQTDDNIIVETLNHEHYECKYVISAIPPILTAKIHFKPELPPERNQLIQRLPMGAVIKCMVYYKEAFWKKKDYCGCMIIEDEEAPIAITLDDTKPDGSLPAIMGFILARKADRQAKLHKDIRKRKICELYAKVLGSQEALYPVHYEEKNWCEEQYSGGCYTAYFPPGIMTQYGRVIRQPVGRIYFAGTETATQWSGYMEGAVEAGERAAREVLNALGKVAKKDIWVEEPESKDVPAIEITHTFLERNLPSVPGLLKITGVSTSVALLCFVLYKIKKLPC
Put plainly: biochemical. The class given is biochemical. Conditions: substrate 5-HT (5 × 10^-4 M); rat liver MAO, in vitro; average of at least 3 independent experiments. Here is the method: as §1

The subject of the next data set is monoamine oxidase. Put plainly: Inhibition of rat liver monoamine oxidase deamination of dopamine (DA, mixed-type MAO A and B substrate) in vitro. The note with it: substrate DA (5 × 10^-4 M), average of at least 3 independent experiments. The class given is biochemical. Here is the method:
as §1

Data set [3] concerns the target T3, MAO-A (Mus musculus, UniProt Q64133).
T3 construct: MAO activities in the mouse brain after; from tissue
T3 sequence (Q64133 1-526): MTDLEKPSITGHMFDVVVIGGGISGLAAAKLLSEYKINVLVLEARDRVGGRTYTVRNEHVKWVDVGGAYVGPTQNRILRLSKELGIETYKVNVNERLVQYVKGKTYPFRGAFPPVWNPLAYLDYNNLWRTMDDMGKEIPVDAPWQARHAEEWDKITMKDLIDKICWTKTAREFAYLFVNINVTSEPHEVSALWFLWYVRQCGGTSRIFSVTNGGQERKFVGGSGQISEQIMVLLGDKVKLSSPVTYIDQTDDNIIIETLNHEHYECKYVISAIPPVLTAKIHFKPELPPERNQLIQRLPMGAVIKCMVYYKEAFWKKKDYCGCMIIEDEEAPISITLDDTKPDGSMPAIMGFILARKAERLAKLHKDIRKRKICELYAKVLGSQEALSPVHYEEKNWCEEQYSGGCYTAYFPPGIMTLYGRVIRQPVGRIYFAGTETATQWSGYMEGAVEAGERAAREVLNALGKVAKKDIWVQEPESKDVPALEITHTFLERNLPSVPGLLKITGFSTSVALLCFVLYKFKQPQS
The class given is in vivo. As to the method: (§2) Table 3 indicates the MAO activities in the mouse brain following oral administration of the aliphatic propargylamines.
(§3) of each compound. Striata were dissected from the brain two hours after
(§4) the administration of the drugs. MAOA and MAOB activities were determined

For data set [4], the target named is T4, MAO-B (Mus musculus, UniProt Q8BW75).
T4 construct: MAO activities in the mouse brain after; from tissue
T4 sequence (Q8BW75 1-520): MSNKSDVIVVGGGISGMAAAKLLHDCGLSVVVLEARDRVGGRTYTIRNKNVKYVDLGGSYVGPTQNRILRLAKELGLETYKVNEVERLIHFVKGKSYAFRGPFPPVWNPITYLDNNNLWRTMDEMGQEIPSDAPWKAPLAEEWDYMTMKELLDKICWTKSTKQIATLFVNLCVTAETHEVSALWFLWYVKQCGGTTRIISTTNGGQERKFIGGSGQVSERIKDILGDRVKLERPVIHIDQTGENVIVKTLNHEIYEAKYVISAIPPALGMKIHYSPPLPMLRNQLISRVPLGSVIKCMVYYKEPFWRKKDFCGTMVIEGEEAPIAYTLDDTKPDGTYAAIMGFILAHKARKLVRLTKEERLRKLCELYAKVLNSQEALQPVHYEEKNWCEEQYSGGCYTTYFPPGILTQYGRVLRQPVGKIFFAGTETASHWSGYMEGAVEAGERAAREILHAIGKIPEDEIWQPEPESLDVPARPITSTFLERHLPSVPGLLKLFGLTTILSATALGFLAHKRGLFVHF
Put plainly: in vivo. Conditions: for ED50: read-out: PE ID50; for Ratio MAO-A/MAO-B: 120 min. In kind it is in vivo. As to the method:
(§5) Albino Swiss mice were used in this study. The animals were injected intraperitoneally with different doses of the aliphatic propargylamines in 100 μL saline.
(§6) 0.5, 1, 2, 5, 10, 20, 50, 100 mg/Kg. Striata were dissected from the brai
(§7) two hours after i.p. administration of the drugs. MAOA and MAOB activitie
(§8) were determined immediately. The values were estimated from doseresponse

The conditions of data set [5]: mouse, in vivo. From the text: The acute toxicity of these compounds is quite low. […]. The aliphatic side-chains of these aliphatic propargyl compounds are similar to those that exist in endogenous lipids and fatty acids and such aliphatic chains are readily oxidized in vivo. […]
Data set [6] concerns the target T3, MAO-A. Put plainly: in vivo. The note with it: ip, read-out: 5-HT ID50. Here is the method:
as §5, §6, §7, §8

For data set [7], the target named is T4, MAO-B. Kind of data set: MAO-B activity in the mouse brain after oral administration (substrate PE). Conditions: 2 hours; for Relative activity PE: oral 10 mg/Kg, PE (1.9 × 10^-5 M), mean ± standard error, saline = 100. In kind it is in vivo. Here is the method:
as §2, §3, §4
Striata were dissected from the brain two
hours after oral administration of the drugs. MAOB activities were then
determined immediately. The values were estimated from doseresponse

In data set [8] the test system is dopamine neurons. The note with it: animal study (Tatton); cited from earlier work.
The conditions of data set [9]: reported; cited from earlier work.
A further data set has as its system Parkinson's disease. Conditions: Deprenyl alone; cited from earlier work.
For data set [10] the following is noted: human, in vivo; cited from earlier work.
For data set [11], the system named is dopamine neurons. Kind of data set: Protection of dopamine neurons against MPTP-induced neurotoxicity in the mice brain. In kind it is in vivo, mouse. An excerpt:
Three days later, dopamine levels and dopamine uptake site densities (GBR bindings) were estimated.

Counter-ions that a name gives are not always drawn. Like-named read-outs stand apart in the source and are kept apart here.

Regarding `C#CCNC` [MP, N-Methylpropargylamine-HCl], in “Solubility in water”, the solubility in water result was “infinite”. The “PE IC50” value on MAO-B [1] is “inactive”. Moreover, the “5-HT IC50” value at MAO-A [2] is “inactive”. Besides, the “DA IC50” value with monoamine oxidase is “inactive”.

Usually IC50 stands for the midpoint of a concentration-inhibition curve. For `C#CCN(C)CCCC.Cl` [Example 1-BuMP, N-(1-Butyl)-N-methylpropargylamine hydrochloride], the “Relative activity 5-HT” value on MAO-A [3] (oral 10 mg/Kg, 2 hours, 5-HT (5 × 10^-4 M), mean ± standard error, saline = 100) is 98 ± 5%. Besides, on MAO-B [4] (ID50 i.p. in mice versus IC50 in vitro), the “MAO-B ID50 (mg/Kg) / IC50 (1 × 10^-6 M)” value was 2 (mg/Kg)/(1 × 10^-6 M). Moreover, the “inhibition of brain MAO-B activity in vivo (in words)” value against MAO-B [4] (mouse, i.p., two hours after treatment) is listed as “more potent than the longer chain analogs at inhibiting brain MAO-B activity”. The ED50 at MAO-B [4] (mouse, ip, 2 hours after administration, […], estimated from dose response curves) was 2 mg/kg; at MAO-A [6] (2 hours after administration, 5-HT 5 × 10^-4 M, estimated from dose response curves), 100 mg/kg; on MAO-B [7] (mouse, oral, average of 5 animals per dose, estimated from dose response curves, read-out: Inhibition of MAO-B activity, dose response (ID50)) it was 15 mg/kg. Also, the “Ratio MAO-A/MAO-B” value at MAO-B [4] (ratio of ID50 values, i.p.) came out at 50; on MAO-B [1] (ratio of IC50 values, in vitro), 100. Also, the “fatality after oral administration” value in [5] is “no fatality”. The IC50 is 1000 nM on MAO-B [1] and 100 µM on MAO-A [2]. Also, the “Relative activity PE” value at MAO-B [7] came to 67 ± 9%.

In general, LD50 refers to the dose at which mortality reaches 50%. As to `C#CCN(C)[C@H](C)Cc1ccccc1` [Deprenyl], in the data set with dopamine neurons [8], the “protection of dopamine neurons after MPTP washed out” value was “shown to protect dopamine neurons even after the MPTP has been completely washed out of the tissues”. The 50% inhibitory concentration (IC50) against monoamine oxidase was 300 nM. Moreover, the ED50 on MAO-A [6] (2 h) worked out at 25 mg/kg. For the same compound, the LD50 in data set [9] is 445 mg/kg. In addition, the “onset of disability in early, otherwise untreated Parkinson's disease” value in the data set on Parkinson's disease was “can significantly delay the onset of disability”.

Take `CC(C)NNC(=O)c1ccncc1` [Iproniazid]: the “adverse effects leading to withdrawal” value in data set [10] was “hepatic toxicity and occasional hypertensive crises”.

For `C#CCN(C)CCCCC.O=C(O)C(=O)O` [Example M-1-PP, N-(1-Pentyl)-N-methylpropargylamine oxalate], the “Relative activity 5-HT” value on MAO-A [3] (mouse, in vivo, po, 10 mg/kg) is 97 ± 13. For the same compound, the “MAO-B ID50 (mg/Kg) / IC50 (1 × 10^-6 M)” value at MAO-B [4] (mouse, in vivo, ip) was 6.6. The “inhibition of brain MAO-B activity in vivo (in words)” value on MAO-B [4] (mouse, in vivo, ip) was “more potent than the longer chain analogs at inhibiting brain MAO-B activity”. The “Ratio MAO-A/MAO-B” value amounted to 50 at MAO-B [4] (mouse, in vivo, ip) and 200 at MAO-B [1] (rat, liver mitochondrial membranes). The ED50 is 2 mg/kg at MAO-B [4] (mouse, ip, 2 h) and 100 mg/kg on MAO-A [6] (2 h). Also, the “fatality after oral administration” value in [5] is listed as “no fatality”. Also, the IC50 at MAO-B [1] is 400 nM; at MAO-A [2], 100 µM. The Dopamine in the data set on dopamine neurons [11] (2.0 mg/Kg + MPTP) is recorded as 3.1 μg/gm; in the data set on dopamine neurons [11] (10 mg/Kg + MPTP) it was 9.0 μg/gm. The Dopamine binding site in the data set with dopamine neurons [11] (2.0 mg/Kg + MPTP) worked out at 221 pmol/mg; in the data set on dopamine neurons [11] (10 mg/Kg + MPTP), 320 pmol/mg. Also, at MAO-B [7], the “Relative activity PE” value worked out at 72 ± 17%.

The values above are taken from patent publication US5508311A, “Aliphatic propargylamines as selective MAO-B inhibitors and as neuroprotective agents” (University of Saskatchewan, priority 1993, dated 1996).
